Reference: ChEMBL document CHEMBL1134996, “Non-peptide alpha(v)beta(3) antagonists. Part 5: identification of potent RGD mimetics incorporating 2-aryl beta-amino acids as aspartic acid replacements” (Bioorg Med Chem Lett, 2002)

Columns and labels:
Integrin alpha-V/beta-3 = Integrin alpha-V/beta-3 (Homo sapiens, UniProt P05106+P06756); test: Inhibition of binding to human integrin receptor alpha V beta3; type: protein-complex assay
[1] = Clearance after oral and iv dosing in dogs; type: ADME, organism-based, Canis lupus familiaris; settings: dog, in vivo, read-out: CI
[2] = Bioavailability in dog; type: ADME, organism-based, Canis lupus familiaris; settings: in vivo

Sequence of Integrin alpha-V/beta-3 (P05106 27-788 limits assumed): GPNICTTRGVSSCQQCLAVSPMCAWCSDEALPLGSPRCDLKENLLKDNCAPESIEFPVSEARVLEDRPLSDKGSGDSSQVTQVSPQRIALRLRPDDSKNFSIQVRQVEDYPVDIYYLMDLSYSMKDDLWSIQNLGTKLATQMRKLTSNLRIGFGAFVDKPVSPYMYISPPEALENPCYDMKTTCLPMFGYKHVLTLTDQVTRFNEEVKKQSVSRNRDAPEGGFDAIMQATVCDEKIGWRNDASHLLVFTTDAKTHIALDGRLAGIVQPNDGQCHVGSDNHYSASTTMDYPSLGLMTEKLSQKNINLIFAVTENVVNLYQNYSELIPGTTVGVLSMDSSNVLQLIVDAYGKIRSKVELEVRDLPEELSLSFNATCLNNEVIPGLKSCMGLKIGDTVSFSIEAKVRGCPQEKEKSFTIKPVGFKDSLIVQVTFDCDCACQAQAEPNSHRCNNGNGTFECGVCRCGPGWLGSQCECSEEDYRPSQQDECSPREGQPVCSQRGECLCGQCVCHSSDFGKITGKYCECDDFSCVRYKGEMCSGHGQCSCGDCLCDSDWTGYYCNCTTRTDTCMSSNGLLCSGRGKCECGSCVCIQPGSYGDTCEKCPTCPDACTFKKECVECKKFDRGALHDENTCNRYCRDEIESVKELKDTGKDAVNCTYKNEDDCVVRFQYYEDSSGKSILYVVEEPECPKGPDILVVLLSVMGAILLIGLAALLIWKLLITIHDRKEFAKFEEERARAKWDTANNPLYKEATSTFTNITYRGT
Sequence of Integrin alpha-V/beta-3 (P06756 31-889 limits assumed): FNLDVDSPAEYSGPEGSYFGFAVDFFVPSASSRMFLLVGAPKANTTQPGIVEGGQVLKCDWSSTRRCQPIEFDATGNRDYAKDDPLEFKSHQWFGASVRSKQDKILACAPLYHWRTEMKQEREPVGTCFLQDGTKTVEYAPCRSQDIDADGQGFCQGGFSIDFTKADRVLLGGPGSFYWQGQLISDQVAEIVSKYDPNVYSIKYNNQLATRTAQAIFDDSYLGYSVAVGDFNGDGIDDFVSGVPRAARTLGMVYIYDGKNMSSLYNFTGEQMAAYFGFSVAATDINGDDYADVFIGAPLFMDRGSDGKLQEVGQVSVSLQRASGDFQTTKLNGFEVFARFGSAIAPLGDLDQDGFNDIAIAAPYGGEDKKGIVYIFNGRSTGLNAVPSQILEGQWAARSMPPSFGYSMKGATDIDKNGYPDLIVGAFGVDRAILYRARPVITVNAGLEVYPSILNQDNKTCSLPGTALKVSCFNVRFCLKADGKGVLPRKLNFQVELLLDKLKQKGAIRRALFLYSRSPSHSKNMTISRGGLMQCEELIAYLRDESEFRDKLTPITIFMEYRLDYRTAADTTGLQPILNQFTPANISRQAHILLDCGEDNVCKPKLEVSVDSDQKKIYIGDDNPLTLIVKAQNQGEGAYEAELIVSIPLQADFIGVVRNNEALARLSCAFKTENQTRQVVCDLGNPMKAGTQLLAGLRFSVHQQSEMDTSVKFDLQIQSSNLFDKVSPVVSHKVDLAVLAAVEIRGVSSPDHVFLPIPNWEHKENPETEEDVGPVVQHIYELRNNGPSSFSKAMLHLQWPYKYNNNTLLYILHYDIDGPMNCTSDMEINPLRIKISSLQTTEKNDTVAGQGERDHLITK
Sequence of Integrin alpha-V/beta-3 (P06756 891-1048 limits assumed): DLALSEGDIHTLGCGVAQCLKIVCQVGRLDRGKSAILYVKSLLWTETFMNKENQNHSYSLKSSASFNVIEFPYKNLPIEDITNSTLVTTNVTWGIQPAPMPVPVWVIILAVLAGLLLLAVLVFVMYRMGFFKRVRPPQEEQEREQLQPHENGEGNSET

| SMILES | IC50 (Integrin alpha-V/beta-3) [nM] | clearance [1] [mL/min/kg] | bioavailability [2] [%] |
| --- | --- | --- | --- |
| O=C(CCCCc1ccc2c(n1)NCCC2)NCC(C(=O)O)c1cccc(F)c1 (stereo not given) | 10.9 |  |  |
| CN(CC(C(=O)O)c1ccc2c(c1)OCC2)C(=O)CCCCc1ccc2c(n1)NCCC2 (stereo not given) | 0.74 |  |  |
| O=C(CCC1CCc2cc3c(nc2C1)NCCC3)NCC(C(=O)O)c1ccc2c(c1)OCC2 (stereo not given) | 0.72 | 18.9 | 1.1 |
| O=C(CCCCc1nc2c(cc1C1CC1)CCCN2)NCC(C(=O)O)c1ccc2c(c1)OCC2 (stereo not given) | 0.29 | 13.7 | 40 |
| O=C(CCCCc1ccc2c(n1)NCCC2)NCC(C(=O)O)c1cnc2ccccc2c1 (stereo not given) | 0.82 |  |  |
| CN(CC(C(=O)O)c1ccc2c(c1)OCC2)C(=O)CCC1CCc2cc3c(nc2C1)NCCC3 (stereo not given) | 0.35 | 10.3 | 18 |
| O=C(O)C[C@H](NC(=O)CCCCc1ccc2c(n1)NCCC2)c1ccccc1 | 84 |  |  |
| CN(CC(C(=O)O)c1ccc2c(c1)OCC2)C(=O)CCCCc1nc2c(cc1C1CC1)CCCN2 (stereo not given) | 0.49 |  |  |
| O=C(CCCCc1ccc2c(n1)NCCC2)NCC(C(=O)O)c1ccc2c(c1)OCC2 (stereo not given) | 1.01 | 6.6 | 47 |
| O=C(CCCCc1ccc2c(n1)NCCC2)NCC(C(=O)O)c1ccccc1 (stereo not given) | 57.4 |  |  |
| O=C(O)C[C@H](NC(=O)CCCCc1ccc2c(n1)NCCC2)c1cnc2ccccc2c1 | 1.07 |  |  |
| O=C(O)C[C@H](NC(=O)CCCCc1ccc2c(n1)NCCC2)c1ccc2c(c1)OCC2 |  | 2 |  |
